Laboratory results from patent publication US10696615B2, “Prenylated hydroxystilbenes” (The University of Sydney, priority 2011, dated 2020).

Legend:
[1] = tested on: HL-60 (TB); test: NCI in vitro cancer screen, Leukemia; format: cell-based, human; conditions: HL-60 (TB)
[2] = tested on: MOLT-4; test: NCI in vitro cancer screen, Leukemia; format: cell-based, human; conditions: MOLT-4
[3] = tested on: RPMI-8226; test: NCI in vitro cancer screen, Leukemia; format: cell-based, human; conditions: RPMI-8226
[4] = tested on: EKVX; test: NCI in vitro cancer screen, Non-Small Cell Lung Cancer; format: cell-based, human
[5] = tested on: HOP-62; test: as above; format: cell-based, human; conditions: HOP-62
[6] = tested on: HOP-92; test: as above; format: cell-based, human; conditions: HOP-92
[7] = tested on: NCI-H226; test: as above; format: cell-based, human; conditions: NCI-H226
[8] = tested on: NCI-H522; test: as above; format: cell-based, human; conditions: NCI-H522
[9] = tested on: COLO 205; test: NCI in vitro cancer screen, Colon Cancer; format: cell-based, human; conditions: COLO 205
[10] = tested on: HCC-2998; test: NCI in vitro cancer screen, Colon Cancer; format: cell-based, human; conditions: HCC-2998
[11] = tested on: HCT-116; test: NCI in vitro cancer screen, Colon Cancer; format: cell-based, human; conditions: HCT-116
[12] = tested on: HCT-15; test: NCI in vitro cancer screen, Colon Cancer; format: cell-based, human; conditions: HCT-15
[13] = tested on: SF-268; test: NCI in vitro cancer screen, CNS Cancer; format: cell-based, human; conditions: SF-268
[14] = tested on: SF-539; test: NCI in vitro cancer screen, CNS Cancer; format: cell-based; conditions: SF-539
[15] = tested on: LOX IMVI; test: NCI in vitro cancer screen, Melanoma; format: cell-based, human
[16] = tested on: MALME-3M; test: NCI in vitro cancer screen, Melanoma; format: cell-based, human
[17] = tested on: M14; test: NCI in vitro cancer screen, Melanoma; format: cell-based, human; conditions: M14
[18] = tested on: UACC-257; test: NCI in vitro cancer screen, Melanoma; format: cell-based, human; conditions: UACC-257
[19] = tested on: IGROV1; test: NCI in vitro cancer screen, Ovarian Cancer; format: cell-based, human; conditions: IGROV1
[20] = tested on: OVCAR-4; test: NCI in vitro cancer screen, Ovarian Cancer; format: cell-based, human; conditions: OVCAR-4
[21] = tested on: ADR-RES (NCI/ADR-RES); test: NCI in vitro cancer screen, Ovarian Cancer; format: cell-based, human
[22] = tested on: 786-0; test: NCI in vitro cancer screen, Renal Cancer; format: cell-based, human; conditions: 786-0
[23] = tested on: A498; test: NCI in vitro cancer screen, Renal Cancer; format: cell-based, human; conditions: A498
[24] = tested on: CAKI-1; test: NCI in vitro cancer screen, Renal Cancer; format: cell-based, human; conditions: CAKI-1
[25] = tested on: SN12C; test: NCI in vitro cancer screen, Renal Cancer; format: cell-based, human
[26] = tested on: MDA-MB-231 (MDA-MB-231/ATCC); test: NCI in vitro cancer screen, Breast Cancer; format: cell-based, human; conditions: MDA-MB-231
[27] = tested on: HS 578T; test: NCI in vitro cancer screen, Breast Cancer; format: cell-based, human
[28] = Homo sapiens, read-out: LC50 (the source's name)

CC(C)=CCc1c(O)cc(/C=C/c2ccc(O)c(O)c2)c(CC=C(C)C)c1O [USYDS7, (E)-2,4-di(3-methyl-2-buten-1-yl)-3,3′,4′,5-tetrahydroxystilbene]
TGI [1]: 5.06 µM
GI50 ([1]; Homo sapiens): 2.39 µM
CC50 [1, 28]: 13.8 µM
GI50 ([2]; Homo sapiens): 2.01 µM
CC50 [2, 28]: 26.5 µM
TGI [2]: 5.19 µM
GI50 ([3]; Homo sapiens): 2.31 µM
CC50 [3, 28]: 61.1 µM
TGI [3]: 6.01 µM
TGI [4]: 14.7 µM
GI50 ([4]; Homo sapiens): 4.25 µM
CC50 [4, 28]: 44.9 µM
TGI [5]: 15.0 µM
GI50 ([5]; Homo sapiens): 3.67 µM
CC50 [5, 28]: 51.6 µM
TGI [6]: 4.21 µM
GI50 ([6]; Homo sapiens): 1.52 µM
CC50 [6, 28]: 14.2 µM
GI50 ([7]; Homo sapiens): 2.28 µM
LC50 (50% lethal concentration) ([7]; Homo sapiens): 28.1 µM
TGI [7]: 6.24 µM
GI50 ([8]; Homo sapiens): 1.61 µM
CC50 [8, 28]: 7.92 µM
TGI [8]: 3.57 µM
TGI [9]: 4.34 µM
GI50 ([9]; Homo sapiens): 1.79 µM
CC50 [9, 28]: 12.2 µM
TGI [10]: 4.26 µM
GI50 ([10]; Homo sapiens): 1.95 µM
CC50 [10, 28]: 9.34 µM
TGI [11]: 3.02 µM
GI50 ([11]; Homo sapiens): 1.57 µM
LC50 (concentration killing 50% of cells) ([11]; Homo sapiens): 5.82 µM
TGI [12]: 3.78 µM
GI50 ([12]; Homo sapiens): 1.29 µM
CC50 [12, 28]: 22 µM
GI50 ([13]; Homo sapiens): 2.26 µM
CC50 [13, 28]: 22.7 µM
TGI [13]: 5.47 µM
GI50 ([14]; Homo sapiens): 2.21 µM
CC50 [14, 28]: 35.2 µM
TGI [14]: 6.14 µM
TGI [15]: 3.41 µM
GI50 ([15]; Homo sapiens): 1.71 µM
CC50 [15, 28]: 6.81 µM
GI50 ([16]; Homo sapiens, Malme-3M): 1.97 µM
CC50 ([16]; Homo sapiens, Malme-3M, read-out: LC50 (the source's name)): 10.4 µM
TGI ([16]; MALME-3M): 4.46 µM
GI50 ([17]; Homo sapiens): 1.79 µM
CC50 [17, 28]: 7.73 µM
TGI [17]: 3.71 µM
GI50 ([18]; Homo sapiens): 2.18 µM
CC50 [18, 28]: 23 µM
TGI [18]: 5.93 µM
GI50 ([19]; Homo sapiens, IGROV-1): 3.12 µM
CC50 ([19]; Homo sapiens, IGROV-1, read-out: LC50 (the source's name)): 36.7 µM
TGI [19]: 8.39 µM
GI50 ([20]; Homo sapiens): 2.85 µM
CC50 [20, 28]: 66.8 µM
TGI [20]: 11.1 µM
TGI ([21]; ADR-RES): 7.90 µM
GI50 ([21]; Homo sapiens, NCI/ADR-RES): 2.23 µM
CC50 ([21]; Homo sapiens, NCI/ADR-RES, read-out: LC50 (the source's name)): 42.4 µM
TGI [22]: 4.47 µM
GI50 ([22]; Homo sapiens): 1.99 µM
LC50 (50% net cell kill) ([22]; Homo sapiens): 10.2 µM
TGI [23]: 23.8 µM
GI50 ([23]; Homo sapiens): 11.1 µM
CC50 [23, 28]: 50.8 µM
TGI [24]: 16.2 µM
GI50 ([24]; Homo sapiens): 4.24 µM
CC50 [24, 28]: 49 µM
TGI [25]: 3.16 µM
GI50 ([25]; Homo sapiens): 1.65 µM
CC50 [25, 28]: 6.03 µM
GI50 ([26]; Homo sapiens): 1.49 µM
CC50 [26, 28]: 10.7 µM
TGI [26]: 3.89 µM
TGI [27]: 8.09 µM
GI50 ([27]; Homo sapiens): 1.84 µM
CC50 [27, 28]: 50.9 µM
